Test system: MV-4-11 cells
Test: Gene expression microarray analysis (Affymetrix PrimeView) and GSEA
Format: cell-based, human
Design: RFU PODN (11730768_x_at) / Fold change /veh PODN (11730768_x_at) / RFU LINC00158 (11744669_a_at) / Fold change /veh LINC00158 (11744669_a_at) / RFU DUSP10 (11751237_a_at) / Fold change /veh DUSP10 (11751237_a_at) / RFU ID3 (11757404_x_at) / Fold change /veh ID3 (11757404_x_at) / RFU PLEKHG5 (11737974_s_at) / Fold change /veh PLEKHG5 (11737974_s_at) / RFU LRRC4B (11730491_at) / Fold change /veh LRRC4B (11730491_at) / RFU GIMAP4 (11747438_a_at) / Fold change /veh GIMAP4 (11747438_a_at) / RFU KRT8 (11758183_x_at) / Fold change /veh KRT8 (11758183_x_at) / RFU CNN1 (11734310_a_at) / Fold change /veh CNN1 (11734310_a_at) / RFU VPS37D (11726825_at) / Fold change /veh VPS37D (11726825_at) / RFU C10orf10 (11716522_x_at) / Fold change /veh C10orf10 (11716522_x_at) / RFU KIR2DL2 /// KIR2DL4 /// KIR2DL5A /// KIR2DL5B /// KIR2DS1 /// KIR2DS2 /// KIR2DS3 /// KIR2DS4 /// KIR3DL3 /// KIR3DL3 /// KIR3DS1 (11738374_at) / Fold change /veh KIR2DL2 /// KIR2DL4 /// KIR2DL5A /// KIR2DL5B /// KIR2DS1 /// KIR2DS2 /// KIR2DS3 /// KIR2DS4 /// KIR3DL3 /// KIR3DL3 /// KIR3DS1 (11738374_at) / RFU C1QL1 (11718748_at) / Fold change /veh C1QL1 (11718748_at) / RFU TMPRSS4 (11747572_a_at) / Fold change /veh TMPRSS4 (11747572_a_at) / RFU HAMP (11756126_x_at) / Fold change /veh HAMP (11756126_x_at) / RFU RNFT2 (11725882_a_at) / Fold change /veh RNFT2 (11725882_a_at) / RFU NR4A2 (11747474_a_at) / Fold change /veh NR4A2 (11747474_a_at) / RFU ABCC12 (11746883_a_at) / Fold change /veh ABCC12 (11746883_a_at) / RFU TMEM136 (11760407_x_at) / Fold change /veh TMEM136 (11760407_x_at) / RFU CLDN22 /// WWC2 (11732394_at) / Fold change /veh CLDN22 /// WWC2 (11732394_at) / RFU HLA-DPB1 (11760878_x_at) / Fold change /veh HLA-DPB1 (11760878_x_at) / RFU SPINT1 (11716480_a_at) / Fold change /veh SPINT1 (11716480_a_at) / RFU GAP43 (11754022_s_at) / Fold change /veh GAP43 (11754022_s_at) / RFU A4GNT (11735810_at) / Fold change /veh A4GNT (11735810_at) / RFU PRB3 (11715151_x_at) / Fold change /veh PRB3 (11715151_x_at) / RFU TUBB4B (11761932_at) / Fold change /veh TUBB4B (11761932_at) / RFU CAPN14 (11732068_a_at) / Fold change /veh CAPN14 (11732068_a_at) / RFU TMCC2 (11721928_a_at) / Fold change /veh TMCC2 (11721928_a_at) / RFU IRGQ (11745062_a_at) / Fold change /veh IRGQ (11745062_a_at) / RFU FAM174B (11720279_a_at) / Fold change /veh FAM174B (11720279_a_at) / RFU TMPRSS4 (11748680_a_at) / Fold change /veh TMPRSS4 (11748680_a_at) / RFU FAM212B (11763350_a_at) / Fold change /veh FAM212B (11763350_a_at) / RFU PLEKHG5 (11743358_a_at) / Fold change /veh PLEKHG5 (11743358_a_at) / RFU ZSCAN30 (11745921_a_at) / Fold change /veh ZSCAN30 (11745921_a_at) / RFU CMKLR1 (11741424_a_at) / Fold change /veh CMKLR1 (11741424_a_at) / RFU LOC101060620 /// MAPK8IP1 (11723275_at) / Fold change /veh LOC101060620 /// MAPK8IP1 (11723275_at) / RFU SPTSSB (11747773_x_at) / Fold change /veh SPTSSB (11747773_x_at) / RFU PRSS12 (11739890_at) / Fold change /veh PRSS12 (11739890_at) / RFU BIN1 (11741810_x_at) / Fold change /veh BIN1 (11741810_x_at) / RFU WNT11 (11732464_a_at) / Fold change /veh WNT11 (11732464_a_at) / RFU C10orf10 (11716521_a_at) / Fold change /veh C10orf10 (11716521_a_at) / RFU C5orf56 (11738089_at) / Fold change /veh C5orf56 (11738089_at) / RFU CYB561 (11721691_x_at) / Fold change /veh CYB561 (11721691_x_at) / RFU ANKRD19P (11752326_a_at) / Fold change /veh ANKRD19P (11752326_a_at) / RFU OR2T12 /// OR2T33 /// OR2T8 (11738714_s_at) / Fold change /veh OR2T12 /// OR2T33 /// OR2T8 (11738714_s_at) / RFU VCAN (11748164_a_at) / Fold change /veh VCAN (11748164_a_at) / RFU JSRP1 (11732532_at) / Fold change /veh JSRP1 (11732532_at) / RFU KRTAP10-11 (11738290_x_at) / Fold change /veh KRTAP10-11 (11738290_x_at) / RFU MYO3A (11730013_a_at) / Fold change /veh MYO3A (11730013_a_at) / RFU EBF3 (11725865_a_at) / Fold change /veh EBF3 (11725865_a_at) / RFU CAMK2N1 (11719241_x_at) / Fold change /veh CAMK2N1 (11719241_x_at) / RFU C5orf56 (11738088_a_at) / Fold change /veh C5orf56 (11738088_a_at) / RFU OLFML3 (11715873_a_at) / Fold change /veh OLFML3 (11715873_a_at) / RFU LOC100653217 /// NTM (11731650_a_at) / Fold change /veh LOC100653217 /// NTM (11731650_a_at) / RFU MAPK11 (11762145_a_at) / Fold change /veh MAPK11 (11762145_a_at) / RFU FIZ1 (11724087_x_at) / Fold change /veh FIZ1 (11724087_x_at) / RFU OASL (11726364_x_at) / Fold change /veh OASL (11726364_x_at) / RFU SOX15 (11748057_x_at) / Fold change /veh SOX15 (11748057_x_at) / RFU CD79A (11719716_a_at) / Fold change /veh CD79A (11719716_a_at) / RFU HIST1H1D (11736915_at) / Fold change /veh HIST1H1D (11736915_at) / RFU CASKIN2 (11723855_a_at) / Fold change /veh CASKIN2 (11723855_a_at) / RFU LOC730098 (11760151_x_at) / Fold change /veh LOC730098 (11760151_x_at) / RFU OR4N2 (11742367_at) / Fold change /veh OR4N2 (11742367_at) / RFU PRRT2 (11749266_a_at) / Fold change /veh PRRT2 (11749266_a_at) / RFU SNX32 (11753110_a_at) / Fold change /veh SNX32 (11753110_a_at) / RFU CDHR5 (11726645_a_at) / Fold change /veh CDHR5 (11726645_a_at) / RFU RCAN1 (11760418_a_at) / Fold change /veh RCAN1 (11760418_a_at) / RFU FAM167A (11723789_a_at) / Fold change /veh FAM167A (11723789_a_at) / RFU FAM26E (11764081_at) / Fold change /veh FAM26E (11764081_at) / RFU ISYNA1 (11749810_s_at) / Fold change /veh ISYNA1 (11749810_s_at) / RFU ACY1 (11761880_at) / Fold change /veh ACY1 (11761880_at) / RFU 11764098_at / Fold change /veh 11764098_at / RFU SAMD14 (11745864_x_at) / Fold change /veh SAMD14 (11745864_x_at) / RFU NPB (11741838_a_at) / Fold change /veh NPB (11741838_a_at) / RFU TMPRSS6 (11731388_a_at) / Fold change /veh TMPRSS6 (11731388_a_at) / RFU KRTAP10-2 (11738614_at) / Fold change /veh KRTAP10-2 (11738614_at) / RFU ARHGAP8 /// PRR5-ARHGAP8 (11727945_x_at) / Fold change /veh ARHGAP8 /// PRR5-ARHGAP8 (11727945_x_at) / RFU KRTAP5-7 /// NADSYN1 (11734609_at) / Fold change /veh KRTAP5-7 /// NADSYN1 (11734609_at) / RFU RASL12 (11751679_a_at) / Fold change /veh RASL12 (11751679_a_at) / RFU CDKN2B (11736163_a_at) / Fold change /veh CDKN2B (11736163_a_at) / RFU PRF1 (11729649_at) / Fold change /veh PRF1 (11729649_at) / RFU, ZNF638 /// ZNF638-IT1 / Fold change vs veh, ZNF638 /// ZNF638-IT1 / RFU, PANK3 / Fold change vs veh, PANK3 / RFU, SH3YL1 / Fold change vs veh, SH3YL1 / RFU, ZEB2 / Fold change vs veh, ZEB2 / RFU, NRIP1 / Fold change vs veh, NRIP1 / RFU, PTTG1IP / Fold change vs veh, PTTG1IP / RFU, CAPN2 / Fold change vs veh, CAPN2 / RFU, MED14 / Fold change vs veh, MED14 / RFU, SNORA58 / Fold change vs veh, SNORA58 / RFU, C1orf63 / Fold change vs veh, C1orf63 / RFU, LRRFIP1 / Fold change vs veh, LRRFIP1 / RFU, NDUFAF7 / Fold change vs veh, NDUFAF7 / RFU, SLC12A2 / Fold change vs veh, SLC12A2 / RFU, IBTK / Fold change vs veh, IBTK / RFU, ESF1 / Fold change vs veh, ESF1 / Fold change vs veh, TMEM50B / RFU, TAOK1 / Fold change vs veh, TAOK1 / RFU, ACBD3 / Fold change vs veh, ACBD3 / RFU, TMA16 / Fold change vs veh, TMA16 / RFU, RWDD3 / Fold change vs veh, RWDD3 / RFU, BCAT1 / Fold change vs veh, BCAT1 / RFU, EDEM3 / Fold change vs veh, EDEM3 / RFU, TMEM33 / Fold change vs veh, TMEM33 / RFU, WDR75 / Fold change vs veh, WDR75 / RFU, AHCTF1 / Fold change vs veh, AHCTF1 / RFU, TFRC / Fold change vs veh, TFRC / RFU, ZDHHC17 / Fold change vs veh, ZDHHC17 / RFU, NOM1 / Fold change vs veh, NOM1 / RFU, ARL8B / Fold change vs veh, ARL8B / RFU, ZBTB11 / Fold change vs veh, ZBTB11 / RFU, TAMM41 / Fold change vs veh, TAMM41 / RFU, KIAA1704 /// LOC100996395 / Fold change vs veh, KIAA1704 /// LOC100996395 / RFU, ING1 / Fold change vs veh, ING1 / RFU, TRMT61B / Fold change vs veh, TRMT61B / RFU, FUBP3 / Fold change vs veh, FUBP3 / RFU, TP53 / Fold change vs veh, TP53 / RFU, TNKS2 / Fold change vs veh, TNKS2 / RFU, ZFP14 / Fold change vs veh, ZFP14 / RFU, ACTR2 / Fold change vs veh, ACTR2 / RFU, PPP3R1 / Fold change vs veh, PPP3R1 / RFU, PIK3R1 / Fold change vs veh, PIK3R1 / RFU, HNRNPA1 / Fold change vs veh, HNRNPA1 / RFU, RNF170 / Fold change vs veh, RNF170 / RFU, ZNF28 / Fold change vs veh, ZNF28 / RFU, RNGTT / Fold change vs veh, RNGTT / RFU, OGT / Fold change vs veh, OGT / RFU, BRD1 / Fold change vs veh, BRD1 / RFU, MARS / Fold change vs veh, MARS / RFU, ZNF655 / Fold change vs veh, ZNF655 / RFU, FAHD1 / Fold change vs veh, FAHD1 / RFU, BDP1 / Fold change vs veh, BDP1 / RFU, LRRCC1 / Fold change vs veh, LRRCC1 / RFU, ARID1A / Fold change vs veh, ARID1A / RFU, ZNF146 / Fold change vs veh, ZNF146 / RFU, ZNF330 / Fold change vs veh, ZNF330 / RFU, GPN3 / Fold change vs veh, GPN3 / RFU, C9orf123 / Fold change vs veh, C9orf123 / RFU, N4BP2L2 / Fold change vs veh, N4BP2L2 / RFU, ARFIP1 / Fold change vs veh, ARFIP1 / RFU, FAM179B / Fold change vs veh, FAM179B / RFU, BCL10 / Fold change vs veh, BCL10 / RFU, UHRF1BP1L / Fold change vs veh, UHRF1BP1L / RFU, BET1 / Fold change vs veh, BET1 / RFU, CNOT2 / Fold change vs veh, CNOT2 / RFU, ZNF268 / Fold change vs veh, ZNF268 / Fold change vs veh, ZNF507 / RFU, DGCR2 / Fold change vs veh, DGCR2 / RFU, WDSUB1 / Fold change vs veh, WDSUB1 / Fold change vs veh, HSP90B1 /// MIR3652 / RFU, ADSS / Fold change vs veh, ADSS / RFU, GK / Fold change vs veh, GK / RFU, ZNF148 / Fold change vs veh, ZNF148 / RFU, TAF9 / Fold change vs veh, TAF9 / RFU, SLC1A5 / Fold change vs veh, SLC1A5 / RFU, SLMO2 / Fold change vs veh, SLMO2 / RFU, ABCC4 / Fold change vs veh, ABCC4 / RFU, LOC101060439 /// RAP1B / Fold change vs veh, LOC101060439 /// RAP1B / RFU, RFX7 / Fold change vs veh, RFX7 / RFU, GTPBP10 / Fold change vs veh, GTPBP10 / RFU, CNEP1R1 / Fold change vs veh, CNEP1R1 / RFU, BIVM-ERCC5 /// ERCC5 / Fold change vs veh, BIVM-ERCC5 /// ERCC5 / RFU, ILF3 / Fold change vs veh, ILF3 / RFU 11762660_at / Fold change /veh 11762660_at / RFU VCAN (11757783_s_at) / Fold change /veh VCAN (11757783_s_at) / RFU DDX43 (11728927_at) / Fold change /veh DDX43 (11728927_at) / RFU KRT8 (11758188_x_at) / Fold change /veh KRT8 (11758188_x_at) / RFU NKD1 (11759106_at) / Fold change /veh NKD1 (11759106_at) / RFU SRD5A1 (11742802_a_at) / Fold change /veh SRD5A1 (11742802_a_at) / RFU TPSAB1 /// TPSB2 (11721975_s_at) / Fold change /veh TPSAB1 /// TPSB2 (11721975_s_at) / RFU GSTM3 (11746129_a_at) / Fold change /veh GSTM3 (11746129_a_at) / RFU IL23R (11737362_x_at) / Fold change /veh IL23R (11737362_x_at) / RFU TMEM51 (11727254_a_at) / Fold change /veh TMEM51 (11727254_a_at) / RFU PIWIL2 (11732686_x_at) / Fold change /veh PIWIL2 (11732686_x_at) / RFU ORM1 (11744905_x_at) / Fold change /veh ORM1 (11744905_x_at) / RFU CCDC152 (11743942_at) / Fold change /veh CCDC152 (11743942_at) / RFU ECM1 (11717891_a_at) / Fold change /veh ECM1 (11717891_a_at) / RFU IL23R (11748794_a_at) / Fold change /veh IL23R (11748794_a_at) / RFU TNFAIP8L3 (11732012_x_at) / Fold change /veh TNFAIP8L3 (11732012_x_at) / RFU MBOAT4 (11741988_at) / Fold change /veh MBOAT4 (11741988_at) / RFU 11764193_at / Fold change /veh 11764193_at / RFU TMEM53 (11763286_at) / Fold change /veh TMEM53 (11763286_at) / RFU MAGEB2 (11727129_at) / Fold change /veh MAGEB2 (11727129_at) / RFU TMEM200A (11744735_a_at) / Fold change /veh TMEM200A (11744735_a_at) / RFU CCDC152 (11751479_a_at) / Fold change /veh CCDC152 (11751479_a_at) / RFU FAM211A (11726209_a_at) / Fold change /veh FAM211A (11726209_a_at) / RFU RGS16 (11746705_a_at) / Fold change /veh RGS16 (11746705_a_at) / RFU VCAN (11755009_s_at) / Fold change /veh VCAN (11755009_s_at) / RFU RHOB (11743442_s_at) / Fold change /veh RHOB (11743442_s_at) / RFU RGS16 (11720943_a_at) / Fold change /veh RGS16 (11720943_a_at) / RFU RGS16 (11720944_at) / Fold change /veh RGS16 (11720944_at) / RFU, VPS4B / Fold change vs veh, VPS4B / RFU, CREB1 / Fold change vs veh, CREB1 / RFU, DNAJC13 / Fold change vs veh, DNAJC13 / RFU, GNAQ / Fold change vs veh, GNAQ / RFU, CDK5R1 / Fold change vs veh, CDK5R1 / RFU, ZRANB3 / Fold change vs veh, ZRANB3 / RFU, CUL4A / Fold change vs veh, CUL4A / RFU, CCNY / Fold change vs veh, CCNY / RFU, UFL1 / Fold change vs veh, UFL1 / RFU, COG3 / Fold change vs veh, COG3 / RFU, DIAPH2 / Fold change vs veh, DIAPH2 / RFU, SKA2 / Fold change vs veh, SKA2 / RFU, AFF3 / Fold change vs veh, AFF3 / RFU, LMF1 / Fold change vs veh, LMF1 / RFU, IPO11 / Fold change vs veh, IPO11 / RFU, DFFB / Fold change vs veh, DFFB / RFU, FOXP1 / Fold change vs veh, FOXP1 / RFU, CARD8 / Fold change vs veh, CARD8 / RFU, STRN3 / Fold change vs veh, STRN3 / RFU, ADK / Fold change vs veh, ADK / RFU, RASSF2 / Fold change vs veh, RASSF2 / RFU, WIPF1 / Fold change vs veh, WIPF1 / RFU, LARP1B / Fold change vs veh, LARP1B / RFU, RASA1 / Fold change vs veh, RASA1 / RFU, RB1 / Fold change vs veh, RB1 / RFU, PPFIA1 / Fold change vs veh, PPFIA1 / RFU, MAT2A / Fold change vs veh, MAT2A / RFU, CCT5 / Fold change vs veh, CCT5 / RFU, WDR92 / Fold change vs veh, WDR92 / RFU, CUX1 / Fold change vs veh, CUX1 / RFU, TTC7A / Fold change vs veh, TTC7A / RFU, TMEM135 / Fold change vs veh, TMEM135 / RFU, DEPTOR / Fold change vs veh, DEPTOR / RFU, CPM / Fold change vs veh, CPM / RFU, DNAJB6 / Fold change vs veh, DNAJB6 / RFU, CACNA2D3 / Fold change vs veh, CACNA2D3 / RFU, DTX4 / Fold change vs veh, DTX4 / RFU, TFCP2 / Fold change vs veh, TFCP2 / RFU, GMCL1 /// GMCL1P1 / Fold change vs veh, GMCL1 /// GMCL1P1 / RFU, AEBP2 / Fold change vs veh, AEBP2 / RFU, SNHG1 /// SNORD22 /// SNORD25 /// SNORD26 /// SNORD27 /// SNORD28 /// SNORD29 /// SNORD31 / Fold change vs veh, SNHG1 /// SNORD22 /// SNORD25 /// SNORD26 /// SNORD27 /// SNORD28 /// SNORD29 /// SNORD31 / Fold change (Aza/veh), C12orf56 (ProbeSet 11735607_a_at) / Fold change (ACY-1035/veh), C12orf56 (ProbeSet 11735607_a_at) / Fold change (Aza/veh), FGFR1OP (ProbeSet 11751329_s_at) / Fold change (ACY-1035/veh), FGFR1OP (ProbeSet 11751329_s_at) / Fold change (Aza/veh), VPS36 (ProbeSet 11739960_a_at) / Fold change (ACY-1035/veh), VPS36 (ProbeSet 11739960_a_at) / RFU SYPL1 (11715823_x_at) / Fold change /veh SYPL1 (11715823_x_at) / RFU IGFBP7 (11715501_s_at) / Fold change /veh IGFBP7 (11715501_s_at) / RFU REEP3 (11722064_at) / Fold change /veh REEP3 (11722064_at) / RFU IGLL1 (11728026_x_at) / Fold change /veh IGLL1 (11728026_x_at): dose or concentration left out as unconfirmed
Details: ProbeSet 11732154_at; LIST B

Nc1ncn([C@@H]2O[C@H](CO)[C@@H](O)[C@H]2O)c(=O)n1 [azacitidine]
Fold change vs veh, OGT: 0.90

— article PMC5218480 (PLoS ONE, 2017)
